BindingDB's records for doi:10.1016/j.ejmech.2015.10.042 (China Pharmaceutical University, 2016)

test: Agonist activity at vitamin D3 receptor in human HL-60 cells assessed as induction of cell differentiation after 96 hrs by NBT dye-based microscopic analysis

Row | SMILES | EC50 [nM]
1 | C=CCN(C)C(=O)c1ccc(C(CC)(CC)c2ccc(OCC(=O)C(C)(C)C)c(C)c2)n1CC | 21600
2 | CCN(CC)CCNC(=O)c1ccc(C(CC)(CC)c2ccc(OCC(=O)C(C)(C)C)c(C)c2)n1CC | 91
3 | CCOC(=O)c1ccc(OC(=O)c2ccc(C(CC)(CC)c3ccc(OCC(=O)C(C)(C)C)c(C)c3)n2CC)cc1 | 45600
4 | CCn1c(C(=O)Nc2ccc(OC(F)(F)F)cc2)ccc1C(CC)(CC)c1ccc(OCC(O)C(C)(C)C)c(C)c1 (stereo unspecified) | > 50000
5 | CCn1c(C(=O)Nc2cccc(C(F)(F)F)c2)ccc1C(CC)(CC)c1ccc(OCC(O)C(C)(C)C)c(C)c1 (stereo unspecified) | > 50000
6 | CCn1c(C(=O)Oc2ccc(CCO)cc2)ccc1C(CC)(CC)c1ccc(OCC(O)C(C)(C)C)c(C)c1 (stereo unspecified) | 5100
7 | CCn1c(C(=O)OCc2ccc(F)cc2)ccc1C(CC)(CC)c1ccc(OCC(O)C(C)(C)C)c(C)c1 (stereo unspecified) | > 50000
8 | CCn1c(C(=O)NCCCN2CCOCC2)ccc1C(CC)(CC)c1ccc(OCC(O)C(C)(C)C)c(C)c1 (stereo unspecified) | 18
9 | CCn1c(C(=O)N(C)c2ccccc2)ccc1C(CC)(CC)c1ccc(OCC(O)C(C)(C)C)c(C)c1 (stereo unspecified) | 6400
10 | CC[C@@H](C)[C@H](NC(=O)c1ccc(C(CC)(CC)c2ccc(OCC(=O)C(C)(C)C)c(C)c2)n1CC)C(=O)O | 10
11 | CCn1c(C(=O)Nc2ccc(OC(F)(F)F)cc2)ccc1C(CC)(CC)c1ccc(OCC(=O)C(C)(C)C)c(C)c1 | > 50000
12 | CCN(CC)CCCNC(=O)c1ccc(C(CC)(CC)c2ccc(OCC(=O)C(C)(C)C)c(C)c2)n1CC | 22
13 | CCOC(=O)CN(C)C(=O)c1ccc(C(CC)(CC)c2ccc(OCC(=O)C(C)(C)C)c(C)c2)n1CC | > 50000
14 | CCn1c(C(=O)NCCCN2CCOCC2)ccc1C(CC)(CC)c1ccc(OCC(=O)C(C)(C)C)c(C)c1 | 240
15 | CCn1c(C(=O)N(C)CCC#N)ccc1C(CC)(CC)c1ccc(OCC(=O)C(C)(C)C)c(C)c1 | 9800
16 | CCn1c(C(=O)N(C)c2ccccc2)ccc1C(CC)(CC)c1ccc(OCC(=O)C(C)(C)C)c(C)c1 | 18500
17 | CCn1c(C(=O)OCc2ccccn2)ccc1C(CC)(CC)c1ccc(OCC(=O)C(C)(C)C)c(C)c1 | > 50000
18 | CCn1c(C(=O)NCCN(C)C)ccc1C(CC)(CC)c1ccc(OCC(=O)C(C)(C)C)c(C)c1 | 77
19 | CCn1c(C(=O)OC(C)CCO)ccc1C(CC)(CC)c1ccc(OCC(=O)C(C)(C)C)c(C)c1 (stereo unspecified) | 380

Row | SMILES | EC50 [nM]
20 | CCn1c(C(=O)NCCBr)ccc1C(CC)(CC)c1ccc(OCC(=O)C(C)(C)C)c(C)c1 | 1900
21 | CCn1c(C(=O)NCCCN(C)C)ccc1C(CC)(CC)c1ccc(OCC(=O)C(C)(C)C)c(C)c1 | 96
22 | CCn1c(C(=O)OCc2ccc(F)cc2)ccc1C(CC)(CC)c1ccc(OCC(=O)C(C)(C)C)c(C)c1 | 9500
23 | CCn1c(C(=O)NCCN)ccc1C(CC)(CC)c1ccc(OCC(=O)C(C)(C)C)c(C)c1 | 120
24 | CCn1c(C(=O)N(CCC#N)CCC#N)ccc1C(CC)(CC)c1ccc(OCC(O)C(C)(C)C)c(C)c1 (stereo unspecified) | 97
25 | CC[C@@H](C)[C@H](NC(=O)c1ccc(C(CC)(CC)c2ccc(OCC(=O)C(C)(C)C)c(C)c2)n1CC)C(=O)OC | 590
26 | C#CCNC(=O)c1ccc(C(CC)(CC)c2ccc(OCC(=O)C(C)(C)C)c(C)c2)n1CC | 2200
27 | CCn1c(C(=O)N(CCC#N)CCC#N)ccc1C(CC)(CC)c1ccc(OCC(=O)C(C)(C)C)c(C)c1 | 870
28 | CCn1c(C(=O)N(C)CC(=O)O)ccc1C(CC)(CC)c1ccc(OCC(=O)C(C)(C)C)c(C)c1 | 1390
29 | CCn1c(C(=O)Nc2cccc(C(F)(F)F)c2)ccc1C(CC)(CC)c1ccc(OCC(=O)C(C)(C)C)c(C)c1 | > 50000
30 | CCn1c(C(=O)Oc2ccc(CC(=O)OC)cc2)ccc1C(CC)(CC)c1ccc(OCC(=O)C(C)(C)C)c(C)c1 | 2320
31 | CCOC(=O)c1ccc(OC(=O)c2ccc(C(CC)(CC)c3ccc(OCC(O)C(C)(C)C)c(C)c3)n2CC)cc1 (stereo unspecified) | > 50000
32 | C#CC(C)OC(=O)c1ccc(C(CC)(CC)c2ccc(OCC(=O)C(C)(C)C)c(C)c2)n1CC (stereo unspecified) | 210
33 | C#CCCOC(=O)c1ccc(C(CC)(CC)c2ccc(OCC(=O)C(C)(C)C)c(C)c2)n1CC | 28800
34 | CCn1c(C(=O)OCc2ccccn2)ccc1C(CC)(CC)c1ccc(OCC(O)C(C)(C)C)c(C)c1 (stereo unspecified) | > 50000
35 | CCOC(=O)CC(C)OC(=O)c1ccc(C(CC)(CC)c2ccc(OCC(=O)C(C)(C)C)c(C)c2)n1CC (stereo unspecified) | > 50000
36 | CCOc1ccc(NC(=O)c2ccc(C(CC)(CC)c3ccc(OCC(=O)C(C)(C)C)c(C)c3)n2CC)cc1 | > 50000
37 | CCC(CC)(c1ccc(OCC(=O)C(C)(C)C)c(C)c1)c1ccc(OCC(=O)C(C)(C)C)c(C)c1 [LG190155] | 590

More lines, now with the values ahead:

Row | EC50 [nM] | SMILES
38 | 110 | CCN(CC)CCNC(=O)c1ccc(C(CC)(CC)c2ccc(OCC(O)C(C)(C)C)c(C)c2)n1CC (stereo unspecified)
39 | 8.5 | CCn1c(C(=O)N[C@@H](C)CO)ccc1C(CC)(CC)c1ccc(OCC(O)C(C)(C)C)c(C)c1 (stereo partly specified)
40 | 630 | CCOc1ccc(NC(=O)c2ccc(C(CC)(CC)c3ccc(OCC(O)C(C)(C)C)c(C)c3)n2CC)cc1 (stereo unspecified)
41 | 150 | CCn1c(C(=O)NCC(OC)OC)ccc1C(CC)(CC)c1ccc(OCC(O)C(C)(C)C)c(C)c1 (stereo unspecified)
42 | 10 | CCn1c(C(=O)NCCN)ccc1C(CC)(CC)c1ccc(OCC(O)C(C)(C)C)c(C)c1 (stereo unspecified)
43 | 200 | C#CC(C)OC(=O)c1ccc(C(CC)(CC)c2ccc(OCC(O)C(C)(C)C)c(C)c2)n1CC (stereo unspecified)
44 | 1030 | C#CCCOC(=O)c1ccc(C(CC)(CC)c2ccc(OCC(O)C(C)(C)C)c(C)c2)n1CC (stereo unspecified)
45 | 740 | CCn1c(C(=O)N(C)CC(=O)O)ccc1C(CC)(CC)c1ccc(OCC(O)C(C)(C)C)c(C)c1 (stereo unspecified)
46 | 37 | CCn1c(C(=O)NCCCN(C)C)ccc1C(CC)(CC)c1ccc(OCC(O)C(C)(C)C)c(C)c1 (stereo unspecified)
47 | 66 | CCN(CC)CCCNC(=O)c1ccc(C(CC)(CC)c2ccc(OCC(O)C(C)(C)C)c(C)c2)n1CC (stereo unspecified)
48 | 2.3 | CC[C@@H](C)[C@H](NC(=O)c1ccc(C(CC)(CC)c2ccc(OCC(O)C(C)(C)C)c(C)c2)n1CC)C(=O)O (stereo partly specified)
49 | 130 | CCn1c(C(=O)NCC(OC)OC)ccc1C(CC)(CC)c1ccc(OCC(=O)C(C)(C)C)c(C)c1
50 | 210 | CCOC(=O)CN(C)C(=O)c1ccc(C(CC)(CC)c2ccc(OCC(O)C(C)(C)C)c(C)c2)n1CC (stereo unspecified)
51 | 240 | C#CCNC(=O)c1ccc(C(CC)(CC)c2ccc(OCC(O)C(C)(C)C)c(C)c2)n1CC (stereo unspecified)
52 | 26 | CC[C@@H](C)[C@H](NC(=O)c1ccc(C(CC)(CC)c2ccc(OCC(O)C(C)(C)C)c(C)c2)n1CC)C(=O)OC (stereo partly specified)
53 | 3950 | C=CCN(C)C(=O)c1ccc(C(CC)(CC)c2ccc(OCC(O)C(C)(C)C)c(C)c2)n1CC (stereo unspecified)
54 | 14 | CCn1c(C(=O)NCCN(C)C)ccc1C(CC)(CC)c1ccc(OCC(O)C(C)(C)C)c(C)c1 (stereo unspecified)
55 | 130 | CCn1c(C(=O)NCCBr)ccc1C(CC)(CC)c1ccc(OCC(O)C(C)(C)C)c(C)c1 (stereo unspecified)
56 | 1960 | CCn1c(C(=O)N(C)CCC#N)ccc1C(CC)(CC)c1ccc(OCC(O)C(C)(C)C)c(C)c1 (stereo unspecified)
